Source: patent US10995054B2, “Hyperpolarized [3-13C]acetoacetate and methods of using the same” (Agency for Science, Technology and Research, priority 2016, dated 2021)
“And” between values parts separate entries of the source, which are not always exact repeats. Equal values may be shown once. Read-outs that look alike come from different tables or passages of the source.

What was measured:
[1] = system: myocardial ketone body utilization; test: Ketone body utilization in the heart in vivo measured by hyperpolarized 13C-MRS; design: species or system rat
Excerpt: Male non-obese diabetic Goto-Kakizaki (GK/MolTac; n=10) rats bred by Taconic (New York, US) were ordered from InVivos (Singapore). Male wild-type Wistar Han rats (n=10) were purchased from InVivos (Singapore) and served as controls. At 24 weeks of age, the animals underwent ^13C MRS and MRI to determine myocardial ketone body utilization and cardiac function. The animals were anaesthetized with isoflurane (3% for induction; 1.5-2% for maintenance) in medical air and oxygen at a flow rate of 2.0 L/min and 0.5 L/min, respectively. A catheter was inserted into the tail vein for intravenous administration of the hyperpolarized [3-^13C] acetoacetate inside the MRI scanner. At the end of the study, the animals were sacrificed. Blood and organs were collected and stored at −80° C. for biochemical analysis. All procedures involving animals were approved by A*STAR Institutional Animal Care and Use Committee (#171204)
Rats were positioned supine in a 9.4 T horizontal bore MR scanner interfaced to a Avance III HD console (Biospec, Bruker, Germany), with the heart directly above a dual-tuned (^1H/^13C) rat surface coil (diameter: 30 mm). Correct positioning was confirmed by the acquisition of an axial proton FLASH image (TE/TR, 8.0/100.0 ms; matrix size, 128×128; FOY, 40×40 mm; slice thickness, 1.5 mm; excitation flip angle, 30°). A cardiac-triggered and respiratory-gated shim was used to reduce the proton linewidth to approximately 160 Hz. Immediately before injection, a respiratory-gated ^13C MR pulse-acquire spectroscopy sequence was initiated. Then, hyperpolarized [3-^13C]acetoacetate (0.75-1.05 mL; 0.240 mmol/kg body weight) was injected via tail vein at a rate of 6 mL/min. Sixty individual heart spectra were acquired over 2 minutes after injection (TR, 2 s; excitation flip angle, 25°; sweep width, 8,000 Hz; acquired points, 4,096; frequency centered at 190 ppm from tetramethylsilane (TMS) standard).
Cardiac ^13C MR spectra were analyzed using the AMARES algorithm as implemented in the jMRUI software package (Naressi A, et al. Magn Reson Mater Physics, Biol Med. 2001; 12:141). Spectra were baseline and DC offset-corrected based on the last half of acquired points. To quantify myocardial ketone metabolism, spectra were summed over the first 30 seconds upon acetoacetate arrival. Peaks corresponding to [3-^13C]acetoacetate and its metabolic derivatives [5-^13C]glutamate, [1-^13C]acetoacetate, and [1-^13C]acetylcarnitine were fitted with prior knowledge assuming a Lorentzian line shape, peak frequencies, relative phases, and linewidths. The fitted amplitudes were then normalized to the amplitude of [3-^13C]acetoacetate.

[2] = Hyperpolarization (DNP) and lifetime of [3-13C]acetoacetate; format: physicochemical
Experimental: Approximately 51 mg of [3-^13C]acetoacetate, doped with 5.5 mg of trityl-radical (OX063, GE Healthcare), 250 μl of gadoterate meglumine (1.2 mmol/L, Dotarem®, Guerbet) and […] of DMSO (25% v/v) was prepared. Total volume is approximately […], resulting in 1.23 mol/L of [3-^13C]acetoacetate, 9.3 mmol/L of OX063, and 0.80 mmol/L of gadolinium. […] of the sample was hyperpolarized in a polarizer (Hypersense, Oxford Instruments, Oxford, UK), with 120 min of microwave irradiation at 94.097 GHz. The polarized sample was subsequently dissolved in 3 mL of pressurized and heated Tris-EDTA buffer with pH 7.80, to yield a solution of 80 mmol/L hyperpolarized [3-^13C]acetoacetate with a polarization of 10% and physiological temperature and pH.
The Examiner first determined whether the synthesized [3-^13C]acetoacetate can be hyperpolarized with sufficient polarization and lifetime for in vivo application. After 120 minutes of microwave irradiation at 1.2 K, the achieved polarization was 10.3±1.2% and T1 was 28.2±3.1 s. Besides the main substrate peak at 209.9 ppm and the natural abundance [1-^13C]acetoacetate at 174.6 ppm, an impurity peak was detected at 181.0 ppm. The amplitude of the impurity peak is 0.19±0.01% of the [3-^13C]acetoacetate signal. The impurity peak is very close to the expected [5-^13C]glutamate peak at 181.2 ppm (FIG. 2B). […]

[3] = 0.240 mmol/kg i.v.
insulin secretion = conditions: infusion in man, concentration higher than 2 mM; cited from earlier work
[4] = target: T1, sodium/glucose co-transporter-2 (SGLT-2) (Homo sapiens, UniProt P31639); conditions: cited from earlier work
T1 construct: host or cells: diabetic patients (in vivo)
T1 sequence (P31639 1-672): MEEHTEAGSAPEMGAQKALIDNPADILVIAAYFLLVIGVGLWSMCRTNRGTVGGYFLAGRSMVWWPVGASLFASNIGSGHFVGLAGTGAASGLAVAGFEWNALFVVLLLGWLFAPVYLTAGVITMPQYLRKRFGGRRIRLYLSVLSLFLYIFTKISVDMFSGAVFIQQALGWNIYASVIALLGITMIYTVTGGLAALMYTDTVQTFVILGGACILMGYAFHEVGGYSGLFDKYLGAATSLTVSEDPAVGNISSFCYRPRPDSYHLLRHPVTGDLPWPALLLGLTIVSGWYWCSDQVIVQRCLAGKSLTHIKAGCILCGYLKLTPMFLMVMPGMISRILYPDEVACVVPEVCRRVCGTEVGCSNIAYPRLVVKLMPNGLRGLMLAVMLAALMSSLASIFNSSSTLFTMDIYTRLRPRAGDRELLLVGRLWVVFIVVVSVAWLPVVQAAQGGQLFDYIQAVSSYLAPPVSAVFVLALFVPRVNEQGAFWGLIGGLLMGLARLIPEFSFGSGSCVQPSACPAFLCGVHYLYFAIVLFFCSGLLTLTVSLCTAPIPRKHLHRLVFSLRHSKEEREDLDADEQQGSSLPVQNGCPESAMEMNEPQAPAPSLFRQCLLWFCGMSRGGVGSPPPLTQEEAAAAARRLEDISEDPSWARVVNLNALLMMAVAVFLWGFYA

myocardial infarct = conditions: fasted rats, ischemia-reperfusion; cited from earlier work
blood glucose = test: Intraperitoneal insulin tolerance test (IpITT); format: in vivo, rat; conditions: diabetic GK rats, insulin 1 U/kg i.p.
Experimental: The response to insulin glucose tolerance was determined by measuring the blood glucose levels before and at 60, 120, 180, 240, 300, and 360 minutes after intraperitoneal injection of insulin solution (1 U/kg body weight).

[5] = diabetic GK vs control rats, P=0.002
[6] = rat heart, i.v., 13C MRS time resolution 2 s

With `C[13C](=O)CC(=O)[O-].[Li+]` [[3-^13C]acetoacetate, lithium [3-^13C]acetoacetate] the “production of [3-13C]β-OHB” value ([1]; diabetic GK vs control rats, P=0.001) was “lower in diabetic rats than in control rats”, the “production of [5-13C]glutamate” value [1, 5] was “higher in the diabetic rats than in controls” and the “total production of [5-13C]glutamate+[1-13C]citrate” value [1, 5] was “also higher in the diabetic rats compared with controls”. For the same compound, the “total products of ketone body utilization ([5-13C]glutamate+[1-13C]acetylcarnitine)” value ([1]; diabetic GK vs control rats, normalized to [3-13C]acetoacetate, P=0.009) was “higher in the diabetic rats compared with controls”, the “[5-13C]glutamate metabolite signal, relative to [3-13C]acetoacetate signal” value ([1]; rat heart in vivo, i.v. injection) was 2-4 % of the [3-13C]acetoacetate s and the “appearance of 13C label in [1-13C]acetylcarnitine and [5-13C]glutamate after acetoacetate peaks” value [1, 6] was 2 to 4 s. For the same compound, the “appearance of [1-13C]citrate” value [1, 6] was 8 to 10 s, the achieved polarization ([2]; 120 min microwave irradiation at 1.2 K, DNP) was 10.3±1.2% and 10% and the T1 ([2]; after 120 min microwave irradiation at 1.2 K) was 28.2 ± 3.1 s. For the same compound, the “calculated acetoacetate concentration in the blood after injection” value ([3]; GK rats) was 4.30 mM and the “calculated acetoacetate concentration in the blood after injection” value ([3]; control rats) was 4.27 mM.
For `CC(=O)CC(=O)O` [acetoacetate], the “effect on insulin secretion” value (insulin secretion) is listed as “transient stimulatory effect on insulin secretion” and the “time after which the effect on insulin secretion abates” value (insulin secretion) is listed as 10 to 15 min.
For `OC[C@H]1O[C@@H](c2ccc(Cl)c(Cc3ccc(O[C@H]4CCOC4)cc3)c2)[C@H](O)[C@@H](O)[C@@H]1O` [empagliflozin], the “plasma ketone body concentration” value ([4]; after empagliflozin treatment) is listed as “increase in plasma ketone body concentration” and the cardiovascular outcome ([4]; diabetic patients) is listed as “improved cardiovascular outcome”.
For `CC(O)CC(=O)O` (stereo not drawn) [β-OHB, β-hydroxybutyrate], the “myocardial infarct size and apoptosis” value (myocardial infarct) is listed as “reduced myocardial infarct size and apoptosis”.
With “insulin: insulin solution injected intraperitoneally in the insulin tolerance test” the “blood glucose during insulin tolerance test” value (blood glucose) was “lowered blood glucose”.
